Counter-ions that a name gives are not always drawn.
Legend:
[1] = regioselective reduction of biomimics with catalyst precursor (2) and sodium formate, followed by 1H NMR; conditions: disappearance of pyridinium signals vs [(CH3)4N]OTf during first 2 hours; compound (1a) set to 1.0
Protocol: The relative rates, seen tabulated in FIG. 1C, were determined by observing disappearance of the pyridinium signals versus an internal standard, [(CH3)4N]OTf (tetramethylammonium triflate), during the first 2 hours, where the relative rate of 1-benzylnicotinamide triflate (1) was set to 1.0. The turnover frequencies were calculated by the formation of mmol of product/mmol of catalyst/hour. The total turnover number in 24 hours was ˜95 for all substrates that gave product. The reactions were conducted in presilylated J. Young NMR tubes and were followed by ^1H NMR.
The electronic effect of differently substituted nicotinamide substrates was determined by their relative rates. The relative rates of these compounds were determined by observing the disappearance of the pyridinium signals compared to interval standard, [(CH3)4N]OTf, during the first 2 hours, where the relative rate of compound (1a) was 1.0.
In a typical reaction, a J. Young NMR tube was charged, biomimic substrates (1a)-(1i) (1.0 mol), 2 (1% mol), and HCO2Na (1.1 mol) used as the hydride source and a Schlenk techniques were conducted to deoxygenate the solid mixture. A diluted solvent was added to these solids for compounds (1a)-(1i), the solvent was D2O-THF-d8 (1=1 0.75 mL, deoxygenated), and the NMR tube was placed in a liquid nitrogen bath. The contents were further degassed by two successive freeze-pump-thaw cycles. After thawing out the reaction mixture, the J. Young NMR tube was immediately put in a salted ice-bath and covered with aluminum foil. The reaction was then followed by ^1H NMR spectroscopy at 26° C. temperature, after a speedy thawing out.
The given relative rates and turnover frequencies were determined by decreasing integration of the corresponding pyridinium salts measured against an internal standard, (CH3)4N(OTf), during the first 2 h of the reaction. The ratios of the 1,4- and 1,6-dihydronicotinamide derivatives of compounds (1a), (1b) and (1d)-(1g) were obtained by comparison of the resonance signals with those of authentic samples, where the diagnostic signal is the resonance for —CH2Ph moiety which can be identified unambiguously in the ^1H NMR spectrum.

[2] = UV-vis kinetics of the regioselective reduction with rhodium catalyst precursor (2) and formate; conditions: for kcat rate constant for catalysis / r1 initial rate: [2] 2.725 × 10^−5 M, 299° K
Excerpt: The kinetics of the regioselective reduction reactions were further studied utilizing UV-vis techniques with the two biomimic compounds (1) and (6) and the results were compared to NAD^+ itself. Experimental conditions are described in Example 9.
The effect of the initial rate (ri) at low conversions to the 1,4-dihydro product (˜10%) was ascertained by varying the amount of substrate precatalyst (2) and sodium formate concentrations.
The initial rates (ri) of formation of compound (3) were obtained from plots of concentration (absorbance at 354 nm/ε) versus time at low conversions (˜10%). The values of kcat were calculated at 299° K.
Rates were obtained via UV-vis techniques and are an average of two runs.
This example describes studies producing kinetic and thermodynamic data for 1-benzylnicotinamide triflate (1a) performed in THF/H2O, 1:1, β-nicotinamide -5′-ribose methyl phosphate (6) H2O, pH=6.5, and NAD^+ performed in the regioselective reduction with [Cp*Rh(bpy)H2O)][OTf]2, 2 and in the presence of formate ion.
The kinetic experiments were carried out on a Hewlett Packard 8452A Diode Array Uv-Vis spectrophotometer, attached to a circulating water bath (VWR 1160). For experiments conducted at different temperatures, the circulating water bath, as well as the UV-vis instrument, were warmed up for at least an 1 hour before the kinic studies were initiated.
The 1-benzylnicotinamide triflate (1a) [CP*Rh(bpy)(H2O)][OTf]2 (2) and 1-benzyl-1,4 dihydronicotinamide (3) were synthesized by methods as described in Examples 2, 4 and 7. The NAD^+ and 1,4-NADH compounds were purchased from Sigma and used as received. The THF was distilled from Na and deoxygenate with N2 gas for 1 hour. Distilled water was purchased from Aldrich Chemical Co and deoxygenate prior to being used. A solution of THF/H2O (similar for 1:1 or 1:4 ratios) was used for all the kinetic experiments performed for compounds of 1-benzylnicotinamide type, unless otherwise specified. A stock solution of biomimic (1a) (0.018 M), 2 (6.23×10^−3 M), and sodium formate (0.25 M) were made for the kinetic experiments in THF/H2O (1:1).
A solution of 1-benzylnicotinamide triflate (1a), (4.29×10^−3 M) and sodium formate (0.0539) was made in a volumetric flask (10 mL) under N2 in a THF/H2O (1:1) mixture. The different concentration of biomimic (1a) and sodium formate used for the kinetic experiments are reported above.
A 3.0 mL aliquot of this solution was transferred to a thermostated UV-vis cell by using an air-free syringe, which was also purged with N2 gas. The sample was then brought to the desired temperature for 30-60 min in the UV-vis spectrophotometer thermostated cell holder. Then, 23 μL of a 6.23×10^−3 M stock solution of [CP*Rh(bpy)(H2O)^2+ (2), was added-by syringe under a positive N2 pressure, quickly mixed with the solution, and the absorbance increase at 354 nm was immediately recorded. The experiment was carried out for 2 hours and the formation of the product, 1-benzyl-1,4-dihydronicotinamide, (3) was followed, with the change in absorbance being recorded every 90 seconds. Some kinetic experiments were carried out until all the starting material was converted to product. The induced volume change was taken into account for the calculation of the turnover frequency (TOF).
The kinetic experiments for the β-nicotinamide-5′-ribose methyl phosphate (6) and natural NAD^+ were performed using the same general procedure described above. These kinetic experiments were carried out in H2O and the concentration of β-nicotinamide-5′-ribose methyl phosphate (6) or NAD^+, sodium formate, and [Cp*Rh(bpy)(H2O)]^2+ (2), were in the order of 1.50×10^−3, 0.0186 M, and 1.42×10^−5 M, respectively. The λmax for the β-nicotinamide-5′-ribose methyl phosphate, (6), and natural NAD^+ was 336 nm. In all the initial rate plots, time =0 s was removed from the plots of Concentration versus Time. The standard deviation of the ri were calculated from 2σ values.

[3] = stability observations (light, air, solvent); type: physicochemical
[4] = [1a] 1.07 × 10^−3 M, HCO2Na 0.03266 M, 1:1 H2O/THF
[5] = [1a] 1.61 × 10^−3 M, HCO2Na 0.03260 M, 1:1 H2O/THF
[6] = [1a] 2.68 × 10^−3 M, HCO2Na 0.03266 M, 1:1 H2O/THF
[7] = [1a] 2.68 × 10^−4 M, HCO2Na 0.03266 M, 1:1 H2O/THF
[8] = [1a] 5.37 × 10^−4 M, HCO2Na 0.03259 M, 1:1 H2O/THF

NC(=O)c1ccc[n+](Cc2ccccc2)c1 [Compound 1a, 1-Benzylnicotinamide, Triflate Salt]
relative rate of regioselective reduction [1]: 1.0
TOF ([2]; 294° K, 1:1 H2O/THF, substrate 4.29 × 10^−3 M): 2 h⁻¹
ri initial rate ([2]; 294° K, 1:1 H2O/THF, substrate 4.29 × 10^−3 M, HCO2Na 5.39 × 10^−2 M, (2) 4.33 × 10^−5 M): 1.23e-08 M/s
TOF ([2]; H2O/THF 1:1, 1a 4.29 × 10^−3 M): 2 h⁻¹
ri initial rate ([2]; H2O/THF 1:1, 1a 4.29 × 10^−3 M, HCO2Na 5.39 × 10^−2 M, (2) 4.33 × 10^−5 M): 1.23e-08 M/s
TOF ([2]; H2O/THF 4:1, 1a 1.68 × 10^−3 M): 10 h⁻¹
ri initial rate ([2]; H2O/THF 4:1, 1a 1.68 × 10^−3 M, HCO2Na 1.79 × 10^−3 M, (2) 1.71 × 10^−5 M): 4.31e-08 M/s
TOF ([2]; H2O/THF 4:1, 1a 4.82 × 10^−3 M): 13 h⁻¹
ri initial rate ([2]; H2O/THF 4:1, 1a 4.82 × 10^−3 M, HCO2Na 5.52 × 10^−2 M, (2) 4.83 × 10^−5 M): 1.75e-07 M/s
increase in initial rate of formation of the 1,4-dihydro derivative (3a), factor ([2]; THF/H2O from 1:1 to 1:4, comparable concentrations): > 6
kcat rate constant for catalysis [2, 4]: 12.61 M^−2s^−1
r1 initial rate [2, 4]: 1.2e-08 M/s
kcat rate constant for catalysis [2, 5]: 14.03 M^−2s^−1
r1 initial rate [2, 5]: 2.01e-08 M/s
kcat rate constant for catalysis [2, 6]: 14.38 M^−2s^−1
r1 initial rate [2, 6]: 3.43e-08 M/s
kcat rate constant for catalysis [2, 7]: 8.85 M^−2s^−1
r1 initial rate [2, 7]: 2.1e-09 M/s
kcat rate constant for catalysis [2, 8]: 13.02 M^−2s^−1
r1 initial rate [2, 8]: 6.3e-09 M/s
stability [3]: more stable in acqueous/organic solvent

From patent publication US6716596B2, “Agents for replacement of NAD+/NADH system in enzymatic reactions” (The Regents of the University of California, priority 2001, dated 2004)
